Reference: patent US20120255051A1, “HERBICIDE TOLERANT PLANTS” (priority 2009, published 2012)
“And” between values parts separate entries of the source, which are not always exact repeats. Equal values may be shown once.

System: Brassica plants comprising mutant AHAS alleles
Assay: Field trial, pre-planting treatment (0, 10, 20, 30 g a.i./ha), two locations in Canada: ERG, EST1, EST2, PPTOX, VIG1, VIG2, VIG3 scores
Type: in vivo, Brassica napus
From the text: Tests were set up and conducted to asses the growth and performance of plants comprising AHAS full knock-out alleles, and to further analyze the correlation between the presence of full knockout and missense AHAS genes in Brassica plants and plant growth and herbicide tolerance of the Brassica plants in the field. To this end, the Brassica plants identified in Example 1 and 2 were backcrossed two times with an elite parent line, and subsequently selfed twice to obtain homozygous plants (BC2S2). Plants were grown as row plots in a split plot design with three replicates (main plots=herbicide treatments, subplots=genotypes) at two locations in Canada. Treatment pre-planting was carried out on the soil about two days before sowing with a dose of 0 (treatment A), 10 (treatment B), 20 (treatment C) or 30 (treatment D) g a.i./ha of thiencarbazone methyl. Herbicide tolerance was measured by scoring for different parameters. The parameter emergence (ERG) was scored at the cotyledon stage on a scale 1-9, where 1 means late emergence and 9 means early emergence. Establishment was scored 14 days after sowing (EST1) and 21 days after sowing (EST2). Scores were from 1 to 9, where 1 is the worst establishment (least plants that emerged), and 9 is the best establishment (most plants emerged). Phytotoxicity (PPTOX) was determined after establishment. Plants were evaluated on a scale of 1 to 9, where 1=completely yellowing, 5=50% of plant is yellow and 9=no yellowing. The vigor scores (see above) were determined at 1-2 leaf stage (VIG1), 7 days after VIG1 (VIG2) and 14 days after VIG1 (VIG3). The average values (Av) and standard deviations (SD) of the scores for the different parameters are represented in Table 7a-g.
Further, the contribution of the knock-out allele to herbicide tolerance conferred by the missense allele was calculated. First, the scores were corrected for a possible effect of the growth per se, independent of herbicide treatment. To this end, the scores for treatments B, C and D were divided by the scores for treatment A for the same genotype and for the same parameter (corrected herbicide tolerance scores). Next, the effect of the knock-out allele to these corrected herbicide tolerance scores obtained by the missense allele was calculated. Therefore, the corrected herbicide tolerance scores for the missense—knock-out allele combination was divided by the corrected herbicide tolerance scores for the missense allele—wild-type combination. In case the knock-out allele has no effect on herbicide tolerance conferred by the missense allele, this ratio should be 1. In case the knock-out allele positively contributes to the herbicide tolerance conferred by the missense allele, this ratio should be higher than 1. The results for the contribution of the knock-out allele to herbicide tolerance conferred by the missense allele as calculated above are shown in table 8.

[1] = AHAS1 HETO108/AHAS3 HETO104, 30 g a.i./ha pre-planting (D), Location A
[2] = AHAS1 HETO108/AHAS3 HETO104, 30 g a.i./ha pre-planting (D), Location B
[3] = AHAS1 HETO108/AHAS3 HETO111, 10 g a.i./ha pre-planting (B), Location A
[4] = AHAS1 HETO108/AHAS3 HETO111, 10 g a.i./ha pre-planting (B), Location B
[5] = AHAS1 HETO108/AHAS3 HETO111, 20 g a.i./ha pre-planting (C), Location A
[6] = AHAS1 HETO108/AHAS3 HETO111, 20 g a.i./ha pre-planting (C), Location B
[7] = AHAS1 HETO108/AHAS3 HETO111, 30 g a.i./ha pre-planting (D), Location A
[8] = AHAS1 HETO108/AHAS3 HETO111, 30 g a.i./ha pre-planting (D), Location B
[9] = AHAS1 HETO108/AHAS3 WT, 10 g a.i./ha pre-planting (B), Location A
[10] = AHAS1 HETO108/AHAS3 WT, 10 g a.i./ha pre-planting (B), Location B
[11] = AHAS1 HETO108/AHAS3 WT, 20 g a.i./ha pre-planting (C), Location A
[12] = AHAS1 HETO108/AHAS3 WT, 20 g a.i./ha pre-planting (C), Location B
[13] = AHAS1 HETO108/AHAS3 WT, 30 g a.i./ha pre-planting (D), Location A
[14] = AHAS1 HETO108/AHAS3 WT, 30 g a.i./ha pre-planting (D), Location B
[15] = AHAS1 HETO112, AHAS3 HETO111, treatment B 10 g a.i./ha pre-planting, Location A
[16] = AHAS1 HETO112, AHAS3 HETO111, treatment B 10 g a.i./ha pre-planting, Location B
[17] = AHAS1 HETO112, AHAS3 HETO111, treatment C 20 g a.i./ha pre-planting, Location A
[18] = AHAS1 HETO112, AHAS3 HETO111, treatment C 20 g a.i./ha pre-planting, Location B
[19] = AHAS1 HETO112, AHAS3 HETO111, treatment D 30 g a.i./ha pre-planting, Location A
[20] = AHAS1 HETO112, AHAS3 HETO111, treatment D 30 g a.i./ha pre-planting, Location B
[21] = AHAS1 HETO112, AHAS3 WT, treatment B 10 g a.i./ha pre-planting, Location A

Which “vigor2 (VIG2) score, Av” value (AHAS1 HETO108/AHAS3 HETO104, 20 g a.i./ha pre-planting (C), Location B) does the source give for COC(=O)c1csc(C)c1S(=O)(=O)NC(=O)n1nc(OC)n(C)c1=O [thiencarbazone-methyl, methyl 4-[(4,5-dihydro-3-methoxy-4-methyl-5-oxo-1H-1,2,4-triazol-1-yl)carbonylsulfamoyl]-5-methylthiophene-3-carboxylate] here?
The value was 6.33.

What about the “establishment (EST2) score, Av” value [1] of the same molecule?
The value was 5.33.

And the “phytotoxicity (PPTOX) score, Av” value [1]?
The value was 5.00.

And the “vigor2 (VIG2) score, Av” value [1]?
Its value is 5.67.

And the “establishment (EST2) score, Av” value [2]?
Its value is 5.33.

What about the “phytotoxicity (PPTOX) score, Av” value [2] of the same molecule?
The value was 6.33.

What about the “vigor2 (VIG2) score, Av” value [2] of the same molecule?
Its value is 6.00.

And the “establishment (EST2) score, Av” value [3]?
The value was 6.33.

What about the “vigor1 (VIG1) score, Av” value [3] of the same molecule?
Its value is 6.33.

What about the “vigor2 (VIG2) score, Av” value [3] of the same molecule?
The value was 7.33.

What about the “establishment (EST2) score, Av” value [4] of the same molecule?
The value was 6.00.

And the “vigor2 (VIG2) score, Av” value [4]?
Its value is 7.00.

What about the “establishment (EST2) score, Av” value [5] of the same molecule?
Its value is 5.67.

What about the “phytotoxicity (PPTOX) score, Av” value [5] of the same molecule?
The value was 5.00.

What about the “vigor2 (VIG2) score, Av” value [5] of the same molecule?
The value was 6.33.

And the “establishment (EST2) score, Av” value [6]?
Its value is 5.33.

And the “vigor1 (VIG1) score, Av” value [6]?
Its value is 5.00.

What about the “vigor2 (VIG2) score, Av” value [6] of the same molecule?
Its value is 6.33.

What about the “establishment (EST2) score, Av” value [7] of the same molecule?
Its value is 6.00.

What about the “phytotoxicity (PPTOX) score, Av” value [7] of the same molecule?
The value was 6.00.

And the “vigor1 (VIG1) score, Av” value [7]?
The value was 6.00.

And the “vigor2 (VIG2) score, Av” value [7]?
The value was 7.00.

What about the “establishment (EST2) score, Av” value [8] of the same molecule?
Its value is 4.00.

What about the “vigor2 (VIG2) score, Av” value [8] of the same molecule?
The value was 4.33.

What about the “establishment (EST2) score, Av” value [9] of the same molecule?
Its value is 6.67 and 6.33.

What about the “phytotoxicity (PPTOX) score, Av” value [9] of the same molecule?
Its value is 7.00.

And the “vigor1 (VIG1) score, Av” value [9]?
The value was 7.00 and 6.00.

And the “vigor2 (VIG2) score, Av” value [9]?
The value was 8.33 and 7.67.

And the “establishment (EST2) score, Av” value [10]?
Its value is 5.00 and 5.33.

What about the “phytotoxicity (PPTOX) score, Av” value [10] of the same molecule?
Its value is 6.33 and 5.00.

And the “vigor1 (VIG1) score, Av” value [10]?
The value was 6.00.

What about the “vigor2 (VIG2) score, Av” value [10] of the same molecule?
The value was 5.33 and 5.67.

And the “establishment (EST2) score, Av” value [11]?
The value was 5.00 and 5.67.

And the “phytotoxicity (PPTOX) score, Av” value [11]?
The value was 5.00.

And the “vigor1 (VIG1) score, Av” value [11]?
Its value is 6.00.

And the “vigor2 (VIG2) score, Av” value [11]?
Its value is 6.67.

And the “phytotoxicity (PPTOX) score, Av” value [12]?
The value was 7.00.

And the “vigor1 (VIG1) score, Av” value [12]?
The value was 5.00.

And the “vigor2 (VIG2) score, Av” value [12]?
The value was 6.33 and 7.67.

And the “establishment (EST2) score, Av” value [13]?
The value was 5.67 and 5.33.

And the “phytotoxicity (PPTOX) score, Av” value [13]?
Its value is 5.00.

And the “vigor2 (VIG2) score, Av” value [13]?
Its value is 6.33.

And the “phytotoxicity (PPTOX) score, Av” value [14]?
The value was 5.00.

What about the “vigor1 (VIG1) score, Av” value [14] of the same molecule?
The value was 5.00.

And the “vigor2 (VIG2) score, Av” value [14]?
The value was 5.00 and 5.33.

What about the “emergence (ERG) score Av” value [15] of the same molecule?
Its value is 4.33.

What about the “establishment (EST1) score Av, 14 days after sowing” value (“establishment (EST1) score Av” below) [15] of the same molecule?
Its value is 5.00.

And the “emergence (ERG) score Av” value [16]?
The value was 4.33.

What about the “establishment (EST1) score Av” value [16] of the same molecule?
The value was 5.67.

And the “emergence (ERG) score Av” value [17]?
Its value is 5.00.

And the “establishment (EST1) score Av” value [17]?
Its value is 5.33.

And the “emergence (ERG) score Av” value [18]?
The value was 4.00.

And the “establishment (EST1) score Av” value [18]?
The value was 5.00.

And the “emergence (ERG) score Av” value [19]?
The value was 5.33.

And the “establishment (EST1) score Av” value [19]?
The value was 5.67.

And the “emergence (ERG) score Av” value [20]?
Its value is 3.00.

And the “establishment (EST1) score Av” value [20]?
Its value is 3.67.

What about the “emergence (ERG) score Av” value [21] of the same molecule?
The value was 1.67.

What about the “establishment (EST1) score Av” value [21] of the same molecule?
Its value is 1.67.

And the “emergence (ERG) score Av” value (AHAS1 HETO112, AHAS3 WT, treatment B 10 g a.i./ha pre-planting, Location B)?
The value was 1.67.
